Source: patent US11186588B2 (AYUMI PHARMACEUTICAL CORPORATION, priority 2017, dated 2021)

Columns and labels:
[1] = system: IL-6 production; test: LPS-induced IL-6 production model test; type: in vivo, C57BL/6J mice; conditions: 10 mg/kg oral, 30 min before LPS 1 mg/kg i.p., serum IL-6 60 min after LPS, mice; for inhibition in vivo at 10 mg/kg: Mus musculus, 1 h
Experimental: In order to evaluate the inhibitory activity of inflammatory cytokine production in the present compounds, LPS-induced IL-6 production model evaluation was carried out. The specific method is described below.
An appropriate amount of each compound was weighed, triturated with an agate mortar, and suspended or dissolved in 1% methyl cellulose solution to prepare 1 mg/mL solution.
C57BL/6J mice (male, Purchaser: Charles River Laboratories Japan, Inc.) were weighted, before divided into normal group, control group and each compound-administered group based on the measured body weight using a random number, wherein each group contained 6 samples. The mice were manually held in hands and forced orally administered the 1% methyl cellulose solution (normal and control group) or each administration solution comprising the compound (each compound-administered group) at a dose of 10 mL/kg into stomach using a feeding needle. After 30 minutes from administration of the 1% methyl cellulose solution or each compound administration solution, the mice were manually held in hands and intraperitoneally administered physiological saline (normal group) or LPS solution (control and each compound-administered group) at a dose of 1 mg/kg. After 60 minutes from administration of the LPS solution, whole blood was collected from the abdominal vena cava of each mouse under isoflurane inhalation anesthesia (available from Mylan Seiyaku Ltd.), and the mice were euthanized. The collected blood was allowed to stand at room temperature for one hour, and then centrifuged at 1,500 G for 10 minutes to collect a serum (supernatant). The collected serum was stored in a deep freezer set at −80° C. until the measurement of IL-6 in the serum. The IL-6 concentration in the serum of each mouse was measured by a commercially available kit (available from R&D systems, Cat No. M6000B), according to the protocol attached thereto.
The IL-6 production inhibition rate (%) was calculated by the following equation using Microsoft EXCEL 2010. IL-6 production inhibition rate (%)=100−{(average value of IL-6 concentration in serum of each compound-administered group)−(average value of IL-6 concentration in serum of normal group))/(average value of IL-6 concentration in serum of control group)−(average value of IL-6 concentration in serum of normal group)}×100

[2] = Pharmacokinetics test in rats (oral administration); type: in vivo, LEW/CrlCrlj rats; conditions: mean n = 4; for AUCinf / AUCt / Cmax / Kel / MRT / T1/2 / Tmax: oral 2 mg/mL solution at 5 mL/kg; for Concentration (ng/mL), sampling time 0.5 h / Concentration (ng/mL), sampling time 1 h / Concentration (ng/mL), sampling time 3 h / Concentration (ng/mL), sampling time 6 h: plasma; for Concentration (ng/mL), sampling time 0.5 h: 0.5 h after oral 2 mg/mL solution at 5 mL/kg; for Concentration (ng/mL), sampling time 1 h: 1 h after oral 2 mg/mL solution at 5 mL/kg; for Concentration (ng/mL), sampling time 3 h: 3 h after oral 2 mg/mL solution at 5 mL/kg; for Concentration (ng/mL), sampling time 6 h: 6 h after oral 2 mg/mL solution at 5 mL/kg
Experimental: In order to evaluate the transition of plasma concentration of the present compound after oral administration, pharmacokinetics was evaluated in rats. The specific method is described below.
Appropriate amounts of Example 71 and various salts thereof were weighed, triturated with an agate mortar, and suspended or dissolved in 1% methyl cellulose solution to 2 mg/mL (as a converted quantity of Example 71 considering the correction of purify).
LEW/CrlCrlj rats (male, purchased form Charles River Laboratories Japan, Inc.) were weighted, a random number based on the measured body weight was used to avoid difference in average body weight among groups, and the rats were divided into groups, wherein each groups contained 4 rats. The rats were manually held in hands and forced orally administered each administration solution comprising the compound at a dose of 5 mL/kg into stomach using a feeding needle. At 0.5, 1, 3, 6 and 24 hours after the administration of each administration solution comprising the compound, the rats were manually held in hands, and blood was collected from the jugular vein or subclavian vein using a heparin-treated injection syringe. The obtained blood was centrifuged at 1,500 G for 10 minutes, and plasma was collected as an actual sample. In addition, plasma was collected from rats before the administration of the compound in the same manner, which was used as blank plasma. The collected actual samples and blank plasma were stored in a freezer set at −70° C. until the measurement of the compound concentration. To 20 μL of each actual sample were added 20 μL of acetonitrile (available from Kishida Chemical Co., Ltd., Cat No. 140-00401), 100 μL of MilliQ water and 20 μL of the internal standard solution to prepare an analytical sample. In addition, to 20 μL of blank plasma were added 20 μL or 40 μL of acetonitrile (available from Kishida Chemical Co., Ltd., Cat No. 140-00401) and 100 μL of MilliQ water (a blank sample or a zero sample, respectively). A standard sample for a calibration curve was prepared by mixing 20 μL of blank plasma, 20 μL of the standard solution for a calibration curve in each concentration, 100 μL of MilliQ water and 20 μL of the internal standard solution. Whole amount of the prepared each sample was applied to a diatomaceous earth column for liquid-liquid extraction (available from Biotage, Cat No. 820-0200), tert-butyl methyl ether (available from Kanto Chemical Co., Inc., Cat No. 04418-5B) was added and eluted by natural dropping, and the obtained eluate was concentrated to dryness under a nitrogen stream. The residue was dissolved in the re-dissolved solution and 10 μL of each sample was injected into the LC/MS/MS apparatus.
LC/MS/MS analysis was carried out under the following conditions. Analytical column: Hydrosphere C18, 3 μm, 2.0 mm I.D.×50 mm (from YMC, Cat No. HS12S03-0502WT)
Flow rate: 0.3 mL/min. Column temperature: 50° C. Peak area calculation, peak area ratio calculation, preparation of calibration and quantification used in calculating the concentration for the LC/MS/MS analysis were carried out by Analyst ver.1.6.2 (available from AB Sciex). In addition, by using the obtained concentration measurement results, these were analyzed by Non-compartmental model of a pharmacokinetics analysis program WinNonlin ver.6.1 (Pharsight Corporation), and the pharmacokinetics parameter was calculated.

[3] = target: Recombinant BRD4 (44-168) protein (Homo sapiens (Human), UniProt O60885); test: BRD4-H4KAc4 binding assay (amplified luminescence proximity homogeneous assay, AlphaScreen); conditions: 10 uM
Outline: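 His/FLAG-tagged BRD4 (44-168) and biotinylated tetra-acetylated H4 peptide, each added as 250 nM solutions, incubated with compound 60 min at room temperature in the dark, then AlphaScreen beads 60 min. Emission 520-620 nm at 680 nm excitation, duplicates; % inhibition from blank- and DMSO-corrected signal.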

[4] = system: NF-κB; test: NF-κB reporter gene assay (TNF-α stimulated A549/NF-κB-luc cells); type: cell-based; conditions: Homo sapiens, TNF-α stimulation
Outline: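 A549 cells stably carrying an NF-κB luciferase reporter were preincubated with compound for 1 h, then stimulated with TNF-α for 3 h. Luminescence was read with Steady-Glo, and inhibition was scaled between blank and DMSO control wells. IC50 was obtained by curve fitting.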

CC(=O)Nc1ccc(C2=NN(Cc3cccnc3)c3nnc(C)n3-c3sc(C)c(C)c32)cc1.CC(=O)Nc1ccc(C2=NN(Cc3cccnc3)c3nnc(C)n3-c3sc(C)c(C)c32)cc1.O=C(O)/C=C/C(=O)O [0.5 Fumarate of Example 71]
LPS-induced IL-6 production (% Inhibition @ 10 mg/kg) [1]: 83.0%
AUCinf [2]: 54.47 ng·h/mL
AUCt [2]: 31.38 ng·h/mL
Cmax [2]: 15.70 ng/mL
Kel [2]: 0.35 h⁻¹
MRT [2]: 1.63 h
T1/2 [2]: 3.02 h
Tmax [2]: 0.50 h
Concentration (ng/mL), sampling time 0.5 h [2]: 15.70 ng/mL
Concentration (ng/mL), sampling time 1 h [2]: 11.3 ng/mL
Concentration (ng/mL), sampling time 3 h [2]: 4.28 ng/mL
Concentration (ng/mL), sampling time 6 h [2]: 2.29 ng/mL

CC(=O)Nc1ccc(C2=NN(Cc3cccnc3)c3nnc(C)n3-c3sc(C)c(C)c32)cc1.Cl [1 Hydrochloride of Example 71]
LPS-induced IL-6 production (% Inhibition @ 10 mg/kg) [1]: 82.7%
AUCinf [2]: 105.65 ng·h/mL
AUCt [2]: 114.07 ng·h/mL
Cmax [2]: 111.0 ng/mL
Kel [2]: 0.57 h⁻¹
MRT [2]: 1.12 h
T1/2 [2]: 1.24 h
Tmax [2]: 0.50 h
Concentration (ng/mL), sampling time 0.5 h [2]: 111.0 ng/mL
Concentration (ng/mL), sampling time 1 h [2]: 34.0 ng/mL
Concentration (ng/mL), sampling time 3 h [2]: 6.75 ng/mL
Concentration (ng/mL), sampling time 6 h [2]: 1.5 ng/mL

COc1ncccc1CN1N=C(c2ccc(Cl)cc2)c2c(sc(C)c2C)-n2c(C)nnc21 [Example 49, 4-(4-chlorophenyl)-6-((2-methoxypyridin-3-yl)methyl)-2,3,9-trimethyl-6H-thieno[2,3-e][1,2,4]triazolo[3,4-c][1,2,4]triazepine]
inhibition in vivo at 10 mg/kg [1]: 17.9%
inhibition at 10 µM [3]: 100%
IC50 [4]: 197 nM

CC(=O)Nc1ccc(C2=NN(Cc3cccnc3)c3nnc(C)n3-c3sc(C)c(C)c32)cc1.O=C(O)/C=C\C(=O)O [1 Maleate of Example 71]
LPS-induced IL-6 production (% Inhibition @ 10 mg/kg) [1]: 82.0%
AUCinf [2]: 118.01 ng·h/mL
AUCt [2]: 115.41 ng·h/mL
Cmax [2]: 80.1 ng/mL
Kel [2]: 0.64 h⁻¹
MRT [2]: 1.27 h
T1/2 [2]: 1.09 h
Tmax [2]: 0.50 h
Concentration (ng/mL), sampling time 0.5 h [2]: 80.1 ng/mL
Concentration (ng/mL), sampling time 1 h [2]: 42.9 ng/mL
Concentration (ng/mL), sampling time 3 h [2]: 7.69 ng/mL
Concentration (ng/mL), sampling time 6 h [2]: 1.66 ng/mL

CC(=O)Nc1ccc(C2=NN(Cc3cccnc3)c3nnc(C)n3-c3sc(C)c(C)c32)cc1.Cc1ccc(S(=O)(=O)O)cc1 [1 Tosylate of Example 71]
LPS-induced IL-6 production (% Inhibition @ 10 mg/kg) [1]: 85.0%
AUCinf [2]: 101.11 ng·h/mL
AUCt [2]: 95.75 ng·h/mL
Cmax [2]: 62.1 ng/mL
Kel [2]: 0.52 h⁻¹
MRT [2]: 1.48 h
T1/2 [2]: 1.42 h
Tmax [2]: 0.50 h
Concentration (ng/mL), sampling time 0.5 h [2]: 62.1 ng/mL
Concentration (ng/mL), sampling time 1 h [2]: 34.7 ng/mL
Concentration (ng/mL), sampling time 3 h [2]: 7.04 ng/mL
Concentration (ng/mL), sampling time 6 h [2]: 2.46 ng/mL

CC(=O)Nc1ccc(C2=NN(Cc3cccnc3)c3nnc(C)n3-c3sc(C)c(C)c32)cc1.CC(=O)Nc1ccc(C2=NN(Cc3cccnc3)c3nnc(C)n3-c3sc(C)c(C)c32)cc1.O=C(O)CCC(=O)O [0.5 Succinate of Example 71]
LPS-induced IL-6 production (% Inhibition @ 10 mg/kg) [1]: 83.0%
AUCinf [2]: 106.41 ng·h/mL
AUCt [2]: 104.34 ng·h/mL
Cmax [2]: 79.8 ng/mL
Kel [2]: 0.64 h⁻¹
MRT [2]: 1.30 h
T1/2 [2]: 1.10 h
Tmax [2]: 0.50 h
Concentration (ng/mL), sampling time 0.5 h [2]: 79.8 ng/mL
Concentration (ng/mL), sampling time 1 h [2]: 36.2 ng/mL
Concentration (ng/mL), sampling time 3 h [2]: 6.88 ng/mL
Concentration (ng/mL), sampling time 6 h [2]: 1.3 ng/mL

Cc1sc2c(c1C)C(c1ccc(N)cc1)=NN(Cc1cccnc1)c1nnc(C)n1-2 [Example 92, 4-(2,3,9-trimethyl-6-(pyridin-3-ylmethyl)-6H-thieno[2,3-e][1,2,4]triazolo[3,4-c][1,2,4]triazepin-4-yl)aniline]
inhibition in vivo at 10 mg/kg [1]: 71%
IC50 [4]: 34.2 nM

CC(=O)Nc1ccc(C2=NNc3nnc(C)n3-c3sc(C)c(C)c32)cc1 [Example 94, N-(4-(2,3,9-trimethyl-6H-thieno[2,3-e][1,2,4]triazolo[3,4-c][1,2,4]triazepin-4-yl)phenyl)acetamide]
inhibition in vivo at 10 mg/kg [1]: 45.7%
IC50 [4]: 96 nM
